Results taken from US11173140B2, “Dosing regimens of PKC activators” (COGNITIVE RESEARCH ENTERPRISES, INC., priority 2015, dated 2021).

What was measured:
PSD-95 = assay: Brain PSD-95 by Western Blot after i.v. bryostatin dosing regimens; assay type: in vivo, mice; conditions: for PSD-95 (% of Control): mouse brain, 1 h after last dose
Protocol: The dose of bryostatin administered is reflected by the number above each bar, while the number within each bar indicates the number of consecutive weeks mice receive a single weekly dose of bryostatin. Control mice were injected with vehicle. PSD-95 was measured in mouse brain by Western Blot 1 h after the last dose. (Mean±SEM, n=3 except Cage 23 n=2, 2-tailed t-test).
Mouse studies were performed using bryostatin-i in accordance with the protocol described below. The following metrics were used to evaluate dosing regimens: induction of brain postsynaptic anchoring protein PSD-95, upregulation of BDNF levels in brain, minimal downregulation of PKC-ε levels, and elevation of brain and plasma concentrations of bryostatin. Groups of 2-3 mice were formed and housed in an approved research animal facility. Water was give ad libitum. A first study involved three groups of mice with animals in each group dosed weekly for 1, 2, 3, or 6 consecutive weeks. Each group had its own control group containing the same number of mice. In this study, mice in the first, second and third groups received an intravenous (i.v.) injection of 10 μg/m^2, 15 μg/m^2, and 25 μg/m^2 dose of bryostatin respectively. For each dose, mice in that group received a single injection of bryostatin weekly for predetermined number of consecutive weeks. Following dosing, mice were sacrificed and the blood and brain of each animal was collected for further analysis.
Cells were harvested in homogenizing buffer containing 10 mM Tris-Cl (pH 7.4), 1 mM PMSF (phenylmethylsulfonyl fluoride), 1 mM EGTA, 1 mM EDTA. 50 mM NaF, and 20 μM leupeptin and were lysed by sonication. The homogenate was centrifuged at 100,000×g for 15 min at 4° C. to obtain the cytosolic fraction (supernatant) and membrane (pellet). The pellet was resuspended in the homogenizing buffer by sonication. Protein concentration was measured using the Coomassie Plus (Bradford) Protein Assay kit (Pierce, USA). Following quantification, 20 μg of protein from each sample was subjected to SDS-PAGE analysis in 4-20% gradient Tris-Glycine gel (Invitrogen, USA). The separated protein was then transferred to nitrocellulose membrane. The membrane was blocked with BSA at room temperature for 15 min and was incubated with primary antibody over night at 4° C. After the incubation, it was washed three times with TBS-T (Tris Buffered saline-Tween 20) and further incubated with alkaline phosphatase conjugated secondary antibody (Jackson Immunoresearch Laboratories. USA) at 1:10,000 dilution for 45 min. The membrane was finally washed three times with TBS-T and developed using the 1-step NBT-BCIP substrate (Pierce, USA). Western Blot was imaged in the Image Quant RT-ECL (GE Life Sciences, Piscataway, N.J.) and densitometric quantification was performed using the IMAL software (Blanchette Rockefeller Neurosciences institute, Morgantown, W. Va.). For translocation assays, PKC activation was represented as the percentage of total protein in the membrane (membrane/cytosol+membrane).
C57B/6 male mice weighing between 19-21 grams were obtained from Charles River and housed in cages, 1 mouse/cage in a vivarium at the Blanchette Rockefeller Neurosciences institute. Animals were allowed access to water ad libitum.
In these studies, bryostatin was administered intravenously (i.v.) by injection into the tail vein of a mouse. Stock solutions of bryostatin were prepared in dimethyl sulfoxide (DMSO). Prior to administration to a mouse, the stock DMSO solution of bryostatin was diluted to a predetermined concentration by dilution with phosphate buffered saline/saline (PBS/saline).
Three different dosing regimens (injection schedules) were compared. The dosing regimens tested were weekly dosing, dosing every other week (alternating weeks), and spaced or intermittent dosing. […]

advanced AD patients = assay: Compassionate use study: cognitive function and behavior (MMSE, ADL-siv); assay type: in vivo, human
Protocol: FIG. 1 illustrates, inter alia, the level of PKCε in the blood of a human subject receiving 25 μg/m^2 of bryostatin as a single weekly dose for three consecutive weeks followed by cessation of dosing for one week and then two additional weeks of dosing at 25 μg/m^2.
FIG. 1 illustrates early results of a compassionate use (CU) study involving human advanced AD patients. […] The administration comprised three consecutive weeks of dosing followed by cessation for one week and then two additional weeks of dosing. Standard psychometric tests were used to measure cognitive functions and behaviors. The study also evaluated the relationship between the level of bryostatin's target, PKC epsilon, in the blood and the cognitive measurements.
Observed improvements included restored speech and word recognition, restored swallowing, lowered or prevented hallucinations, and improved complex motor functions. […] For example, the observed behavioral improvements included restoration of speech and word recognition, restoration of swallowing, disappearance of hallucinations, return of complex motor activity, including swimming, billiards, conversational interactions, and orientation in time and space.
The decline closely tracked the decline in PCK-ε levels, as illustrated in FIG. 1. The observed decline was due to a well-known phenomenon that follows PKC activation called “downregulation”. Sustained clinical improvements in these patients with advanced AD were mitigated by the downregulation of the bryostatin target, PKC-ε. From these preliminary observations the inventors hypothesized that an intermittent dosing regimen of bryostatin was more suitable for maintaining cognitive benefits in AD patients.

[1] = advanced AD patients, weekly dose of 25 μg/m^2, three consecutive weeks

CCC/C=C/C=C/C(=O)O[C@H]1/C(=C/C(=O)OC)C[C@H]2C[C@H]([C@@H](C)O)OC(=O)C[C@H](O)C[C@@H]3C[C@H](OC(C)=O)C(C)(C)[C@](O)(C[C@@H]4C/C(=C/C(=O)OC)C[C@H](/C=C/C(C)(C)[C@]1(O)O2)O4)O3 [Bryostatin-1]
amounts of PSD-95 (PSD-95; mice, 25 μg/m^2 i.v. once per week, three weeks): higher amounts | PSD-95 (% of Control) (PSD-95; cage 7: 10 μg/m^2 i.v. once weekly, 6 weeks): 108.176 % of Control | PSD-95 (% of Control) (PSD-95; cage 17: 15 μg/m^2 i.v. once weekly, 3 weeks): 126.969 % of Control | PSD-95 (% of Control) (PSD-95; cage 21: 25 μg/m^2 i.v., 1 week): 99.453 % of Control | PSD-95 (% of Control) (PSD-95; cage 23: 25 μg/m^2 i.v. once weekly, 2 weeks): 107.570 % of Control | PSD-95 (% of Control) (PSD-95; cage 25: 25 μg/m^2 i.v. once weekly, 3 weeks): 171.203 % of Control | maintenance of cognitive benefits (advanced AD patients; additional bryostatin dosing in weeks 5, 6 and 8-13): failed to maintain the observed cognitive benefits | Activities of Daily Living-Severe Impairment Version (ADL-siv) (advanced AD patients; [1]): improvements | Mini-Mental State Examination (MMSE) score (advanced AD patients; [1]): improvements
